Measurements: patent US20170335402A1, “DOT1L INHIBITORS AND USES THEREOF” (Baylor College of Medicine, priority 2014, published 2017)
“Also recorded” adds a separate entry of the source.

Key:
MV4-11 cells = test: Cell proliferation and viability assay (trypan blue exclusion); format: cell-based, human; conditions: MV4-11 (MLL-rearranged); dose-dependent, FIG. 4
Procedure: (§1) Patient AML cell lines were plated in media and treated with the DOT1L inhibitors SYC-522, EPZ004777 or DMSO control was added at the indicated concentrations. Cells counted, washed and re-plated in fresh compound at equal densities every 3-4 days for 12 days. Cell growth and viability were followed by serial cell counts and trypan blue exclusion staining.
(§2) Exponentially growing cells were plated, in triplicate, in 24-well plates at a density of 2×10^5/mL in a final volume of 1 mL. For dose dependent assays, cells were incubated in increasing concentrations of SYC522 up to 10 μM or EPZ004777 up to 24 μM or DMSO control. For time-dependent assays, cells were incubated in 3 μM EPZ004777 or DMSO control. Every 2-3 days media and compound was replaced and cells were split back to a density of 2×10^5/mL. At each re-plating viable cells number was determined by trypan blue exclusion. Total cell number is expressed as split-adjusted viable cells per mL.

OCI AML2 cells [1] = test: as above; format: cell-based, human; conditions: OCI AML2; escalating doses, 10-14 days
Procedure: as §1, §2

OCI AML3 cells [2] = test: as above; format: cell-based, human; conditions: OCI AML3; escalating doses, 10-14 days
Procedure: as §1, §2

MV411 cells = test: Annexin V binding (AVB) flow cytometry apoptosis assay; format: cell-based, human; conditions: MV4-11; dose-dependent, FIG. 4
Procedure: (§3) For the Annexin V apoptosis assay, 1×10^6 SYC-522-, EPZ004777- or DMSO-treated cells were washed in PBS, resuspended in Ca/HEPES buffer (10 mM HEPES, pH7.4; 140 mM NaCl; 2.5 mM CaCl2) and incubated with Annexin V-APC (BD Pharmingen, San Jose, Calif.) for 30 min then analyzed by flow cytometry.
(§4) Cells were harvested at each re-plating of the cell proliferation assay described above then split for simultaneous analysis of apoptosis, cell cycle, and differentiation. Apoptosis was determined by Annexin V binding (AVB) flow cytometry assay. The harvested cells were re-suspended in 1×AVB buffer, stained with APC-conjugated Annexin V (BD), then analyzed by flow cytometry. For cell cycle analysis, cells were pelleted, washed in PBS with 0.5% bovine serum albumin, then fixed in 70% ice-cold methanol. The fixed cells were then incubated in PBS with 100 μg/mL RNAse (Invitrogen) for 15 minutes in a 37° C. water bath. Propidium iodide (PI) in PBS at a final concentration of 25 μg/mL was then added and the cells were analyzed by flow cytometry. For differentiation, cells were pelleted, and stained with APC-conjugated CD14 then washed and re-suspended in media containing PI to exclude dead cells. All analyses were performed using an LSR II flow cytometer (BD biosciences) and the data were analyzed using FlowJo (TreeStar, V8.8.7).

OCI AML2 cells [3] = test: as above; format: cell-based, human; conditions: increasing concentrations
Procedure: as §3, §4

OCI AML3 cells [4] = test: as above; format: cell-based, human; conditions: increasing concentrations
Procedure: as §3, §4

OCI AML2 cells [5] = test: Cell differentiation analysis, CD14 flow cytometry; format: cell-based, human; conditions: dose dependent
Procedure: (§5) Cell differentiation analysis was performed by staining with fluorescently labeled marker for cell differentiation, CD14 followed by flow cytometry. Propidium iodide was added prior to flow cytometry analysis to exclude dead cells.
as §4

OCI AML3 cells [6] = test: Cell differentiation analysis, CD14 flow cytometry; format: cell-based, human; conditions: dose dependent
Procedure: as §5, §4

[7] = tested on: H3K79me2 in OCI AML2 cells; test: Immunoblot analysis of cellular H3K79 methylation; format: cell-based, human
[8] = tested on: H3K79me2 in OCI AML3 cells; test: Immunoblot analysis of cellular H3K79 methylation; format: cell-based, human
DNMT3A mutant cells = test: HOX gene expression in DNMT3A mutant cells (FIG. 10); format: cell-based, human; conditions: FIG. 10, day 6 and day 10 of treatment
Procedure: RNA was extracted from OCI AML2 and OCI AML3 cells treated with 3 μM EPZ004777 or DMSO control using RNeasy RNA isolation kit (Qiagen) per manufacturer's protocol. RNA was quantified using Nanodrop instrument and 300-1000 ng (equal quantities for EPZ004777 treated and DMSO controls) of RNA were reverse transcribed using the SuperScript® III First-Strand Synthesis System (Invitrogen). Reverse transcription quantitative PCR was then performed in triplicate using predesigned TaqMan primer and probe sets for HOXA9 (Hs00365956_m1), MEIS1 (Hs01017441_m1), HOXB8 (Hs00256885_m1), HOXB3 (Hs01587922_m1), and GAPDH (Hs02758991_ml) (FAM-MGB; Applied Biosystems) for 30 cycles using an AbiPrism 7900HT (Applied Biosystems). Target gene numbers were normalized to the ribosomal RNA 18s (VIC-MGB; Applied Biosystems) and fold-change determined by the 2^−ΔΔCT equation.

[9] = tested on: OCI AML3 subcutaneous tumors; test: Nude rat OCI-AML3 xenograft study, tumor volume; format: in vivo; conditions: 21 days
Procedure: (§6) In vivo studies were conducted. Human acute myeloid leukemia cells OCI-AML3 were implanted subcutaneously into the right flank of female athymic nude rats (Hsd:RH-Foxn1rnu, Harlan Laboratories, Inc.). EPZ-5676 was delivered by continuous IV infusion via a catheter surgically implanted in the femoral vein of each rat. Animals were separated into either an efficacy or PK/PD cohort. Both cohorts were dosed by continuous IV infusion with 35 or 70 mg/kg/day. A control group received continuous IV infusion of the vehicle, 5% hydroxypropyl-β-cyclodextrin (HPBCD) in saline. Efficacy was determined after 21 days of drug treatment followed by a 7 day drug holiday. Animals assessed for PK/PD were dosed for 14 days and euthanized following the completion of infusion. All rats were weighed and tumors calipered twice weekly until the end of study. At the completion of the study animals were euthanized by terminal cardiac puncture under isoflurane anesthesia. Euthanized rats were sampled for tumor tissue. Tumors were collected in an RNase-free environment, bisected, snap frozen in liquid nitrogen, pulverized and finally stored at (−80° C.).

H3K79me2 = test: ELISA of H3K79me2 in OCI AML3 xenograft tumors; format: in vivo, nude rat
Procedure: as §6, with “Tumors were collected in an RNase-free environment, bisected, snap frozen in liquid nitrogen, pulverized and finally stored at (−80° C.).” left out
For isolation of histones from bone marrow, cells were lysed in 250 μL nuclear extraction buffer (10 mM Tris-HCl, 10 mM MgCl2, 25 mM KCl, 1% Triton X-100, 8.6% Sucrose, plus a Roche protease inhibitor tablet 1836145). […] Histones were quantified using the BCA protein assay (Pierce, 23225). […]

MEIS1 and HOXB3 = test: qRT-PCR of MEIS1 and HOXB3 in OCI AML3 xenograft tumors; format: in vivo, nude rat; conditions: 21 days
Procedure: as §6
For the isolation of RNA, 10 mg of tumor powder was lysed in 600 μL RLT Lysis Buffer (Qiagen) and homogenized with a Qiashredder column (Qiagen, 79656) following the manufacturer's protocol. […] MEIS1 and HOXB3 mRNA levels were assessed and normalized to GAPDH by qRT-PCR.

[10] = 35 mg/kg/day continuous IV infusion
[11] = 70 mg/kg/day continuous IV infusion

Structure (SMILES) | cell proliferation (MV4-11 cells) | cell growth / proliferation (OCI AML2 cells [1]) | cell growth / proliferation (OCI AML3 cells [2]) | induction of apoptosis (MV411 cells) | induction of apoptosis (Annexin V binding) (OCI AML2 cells [3]) | induction of apoptosis (Annexin V binding) (OCI AML3 cells [4]) | terminal differentiation (CD14 staining) (OCI AML2 cells [5]) | terminal differentiation (CD14 staining) (OCI AML3 cells [6]) | cellular H3K79 methylation [7] | cellular H3K79 methylation [8] | oncogenic HOX gene expression (DNMT3A mutant cells) | tumor growth (tumor volume) [9, 10] | tumor growth (tumor volume) [9, 11] | H3K79me2 level (H3K79me2; [10]) | H3K79me2 level (H3K79me2; [11]) | expression of oncogenic genes including MEIS1 and HOXB3 in tumors (MEIS1 and HOXB3; [10]) | expression of oncogenic genes including MEIS1 and HOXB3 in tumors (MEIS1 and HOXB3; [11])
CC(C)N(CCCNC(=O)Nc1ccc(C(C)(C)C)cc1)CC1OC(n2cnc3c(N)ncnc32)C(O)C1O (centres unmarked) [SYC-522] | reduction of cell proliferation | decreased proliferation; also recorded: inhibited growth in a dose-dependent fashion | decreased proliferation; also recorded: inhibited growth in a dose-dependent fashion | induction of apoptosis | induction of apoptosis | induction of apoptosis | terminal differentiation | terminal differentiation | inhibit H3K79 methylation in a time-dependent manner; also recorded: inhibited in a dose- and time-dependent fashion | inhibit H3K79 methylation in a time-dependent manner; also recorded: inhibited in a dose- and time-dependent fashion | repressed in a time-dependent fashion |  |  |  |  |  | 
CC(C)N(C[C@H]1O[C@@H](n2cnc3c(N)ncnc32)[C@H](O)[C@@H]1O)[C@H]1C[C@@H](CCc2nc3cc(C(C)(C)C)ccc3[nH]2)C1 [EPZ-5676] |  |  |  |  |  |  |  |  |  |  |  | inhibited in a dose dependent fashion | inhibited in a dose dependent fashion reaching statistical significance | significant reduction of H3K79me2 | significant reduction of H3K79me2 | repression of oncogenic genes | repression of oncogenic genes
